Laboratory results as given in paper PMC11851430, “Workflow for E3 Ligase Ligand Validation for PROTAC Development” (ACS Chemical Biology, 2025).

Columns and labels:
full-length AAK1 = full-length AAK1 (Homo sapiens, UniProt Q2M2I8); assay: cell-based; parameters: species or system HEK293T; NanoBRET tracer displacement in permeabilized cells, NanoLuc fusion protein, Tracer K10; details: permeabilized cells; read-out: AAK1 permeabilized (IC50±sd)/µM
[1] = molecular target: T1, kinase protein levels in MCF-7 cells (Homo sapiens, UniProt Q9BTL3); assay: TMT-labeled quantitative proteomics; assay type: cell-based; details: protein FAM103A1; MCF7; 1 µM; set5
T1 construct: endogenous in cells; host or cells: MCF-7
T1 sequence (Q9BTL3 whole entry): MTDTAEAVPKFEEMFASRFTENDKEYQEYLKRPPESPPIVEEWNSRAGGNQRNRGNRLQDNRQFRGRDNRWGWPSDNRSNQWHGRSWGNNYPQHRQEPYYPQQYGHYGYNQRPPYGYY

Sequence of full-length AAK1 (Q2M2I8 whole entry, the tested form may be a part): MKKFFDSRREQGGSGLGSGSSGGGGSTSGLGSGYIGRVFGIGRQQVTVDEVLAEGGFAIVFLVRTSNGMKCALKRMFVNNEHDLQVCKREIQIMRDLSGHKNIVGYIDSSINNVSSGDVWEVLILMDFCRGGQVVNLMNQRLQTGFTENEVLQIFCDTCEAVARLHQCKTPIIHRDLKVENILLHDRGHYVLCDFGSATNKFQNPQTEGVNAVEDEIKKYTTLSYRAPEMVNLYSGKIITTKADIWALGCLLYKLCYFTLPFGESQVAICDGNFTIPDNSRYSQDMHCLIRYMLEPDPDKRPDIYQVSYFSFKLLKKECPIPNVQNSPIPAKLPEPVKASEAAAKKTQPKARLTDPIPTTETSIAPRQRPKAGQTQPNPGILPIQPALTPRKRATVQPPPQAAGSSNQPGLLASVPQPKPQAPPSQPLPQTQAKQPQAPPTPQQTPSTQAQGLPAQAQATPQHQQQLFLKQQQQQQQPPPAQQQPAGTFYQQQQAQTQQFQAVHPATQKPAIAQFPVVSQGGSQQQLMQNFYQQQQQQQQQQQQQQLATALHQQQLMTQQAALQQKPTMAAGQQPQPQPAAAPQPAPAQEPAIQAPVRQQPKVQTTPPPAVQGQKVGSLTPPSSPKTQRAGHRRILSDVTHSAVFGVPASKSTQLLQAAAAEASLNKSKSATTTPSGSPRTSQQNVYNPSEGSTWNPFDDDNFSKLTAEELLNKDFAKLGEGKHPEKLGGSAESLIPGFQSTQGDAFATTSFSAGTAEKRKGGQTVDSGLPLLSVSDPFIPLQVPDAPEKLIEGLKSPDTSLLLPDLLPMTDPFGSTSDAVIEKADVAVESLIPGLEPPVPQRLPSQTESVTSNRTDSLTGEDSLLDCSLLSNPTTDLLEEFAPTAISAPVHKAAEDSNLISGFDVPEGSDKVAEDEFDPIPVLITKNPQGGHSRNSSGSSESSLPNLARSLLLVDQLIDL

Row | IC50 (full-length AAK1) | P.Value (compound/DMSO) [1] | log2FC (compound/DMSO) [1] | SMILES
1 | 0.04 ± 0.001 µM |  |  | Cc1ncsc1-c1ccc(CNC(=O)[C@@H]2C[C@H](O)CN2C(=O)[C@@H](NC(=O)CCOCCOCCOCCN2CCN(c3cc(Nc4cc(C5CC5)[nH]n4)nc(Nc4ccc(CC#N)cc4)n3)CC2)C(C)(C)C)cc1 [4-a^neg]
2 |  | 0.1981 | -0.2114 | Cc1ncsc1-c1ccc(CNC(=O)[C@@H]2C[C@@H](O)CN2C(=O)[C@@H](NC(=O)CCCCCCN2CCN(c3ccc(Nc4ncc(Cl)c(Nc5ccccc5C(N)=O)n4)cc3)CC2)C(C)(C)C)cc1 [6-d]
